Source: patent US9050341B2, “Methods of treating drug resistant and other tumors by administering 6,7-dialkoxy quinazoline derivatives” (NATCO PHARMA LIMITED, priority 2009, dated 2015)

Tests used:
Assay in all cases: KinomeScan kinase profiling
Format in all cases: binding
HCK = target: T1, HCK (Homo sapiens, UniProt P08631)
T1 construct: host or cells: E. coli host derived from BL21, infected with T7 phage
Procedure, shortened: (§1)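 Kinases were expressed as T7 phage fusions in a BL21-derived E. coli host and the cleared lysates were used. Ligand beads were blocked with biotin and buffer (1% BSA, 0.05% Tween 20, 1 mM DTT). Compounds came from 40× DMSO stocks, and phage in the eluates was titred by qPCR.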

TIE1 = target: T2, TIE1 (Homo sapiens, UniProt P35590)
T2 construct: host or cells: E. coli host derived from the BL21 strain, T7 phage lysate
Procedure, shortened: as §1

[1] = target: T3, RPS6KA6 (Kin.Dom.-2-C-terminal) (Homo sapiens, UniProt Q9UK32)
T3 construct: RPS6KA6 (Kin.Dom.-2-C-terminal); host or cells: E. coli host derived from the BL21 strain, T7 phage lysate
Procedure, shortened: as §1

CDK3 = target: T4, CDK3 (Homo sapiens, UniProt Q00526)
T4 construct: host or cells: T7 phage in E. coli (BL21-derived)
Procedure, shortened: as §1

NDR2 = target: T5, NDR2 (Homo sapiens, UniProt Q9Y2H1)
T5 construct: host or cells: T7 phage in E. coli host derived from BL21
Procedure, shortened: as §1

KIT (V559D) = target: T6, KIT (V559D) (Homo sapiens, UniProt P10721, V559D)
T6 construct: host or cells: T7 phage in E. coli host derived from BL21
Procedure, shortened: as §1

SNARK = target: T7, SNARK (Homo sapiens, UniProt Q9H093)
T7 construct: host or cells: E. coli host derived from the BL21 strain, T7 phage lysate
Procedure, shortened: as §1

ERK8 = target: T8, ERK8 (Homo sapiens, UniProt Q8TD08)
T8 construct: host or cells: E. coli host derived from BL21, T7 phage lysate
Procedure, shortened: as §1

MST3 = target: T9, MST3 (Homo sapiens, UniProt Q9Y6E0)
T9 construct: host or cells: T7 phage in E. coli host derived from BL21
Procedure, shortened: as §1

PFTK1 = target: T10, PFTK1 (Homo sapiens, UniProt O94921)
T10 construct: host or cells: E. coli host derived from the BL21 strain, infected with T7 phage
Procedure, shortened: as §1

ABL1 (M351T) = target: T11, ABL1 (M351T) (Homo sapiens, UniProt P00519, M351T)
T11 construct: host or cells: E. coli host derived from BL21 (T7 phage lysate)
Procedure, shortened: as §1

ABL1 = target: T12, ABL1 (Homo sapiens, UniProt P00519)
T12 construct: host or cells: E. coli host derived from BL21 (T7 phage lysate)
Procedure, shortened: as §1

ABL1 (F317L) = target: T13, ABL1 (F317L) (Homo sapiens, UniProt P00519, F317L)
T13 construct: host or cells: E. coli host derived from BL21 (T7 phage lysate)
Procedure, shortened: as §1

PRKD1 = target: T14, PRKD1 (Homo sapiens, UniProt Q15139)
T14 construct: purchased Ambit Biosciences Corp (KinomeScan); host or cells: E. coli host derived from BL21, infected with T7 phage
Procedure, shortened: as §1

TGFBR2 = target: T15, TGFBR2 (Homo sapiens, UniProt P37173)
T15 construct: host or cells: E. coli host derived from the BL21 strain, T7 phage lysate
Procedure, shortened: as §1

INSRR = target: T16, INSRR (Homo sapiens, UniProt P14616)
T16 construct: host or cells: T7 phage in E. coli host derived from BL21
Procedure, shortened: as §1

IGF1R = target: T17, IGF1R (Homo sapiens, UniProt P08069)
T17 construct: host or cells: T7 phage in E. coli host derived from BL21
Procedure, shortened: as §1

BRSK1 = target: T18, BRSK1 (Homo sapiens, UniProt Q8TDC3)
T18 construct: purchased Ambit Biosciences Corp (KinomeScan); host or cells: E. coli host derived from the BL21 strain, T7 phage
Procedure, shortened: as §1

PDGFRA = target: T19, PDGFRA (Homo sapiens, UniProt P16234)
T19 construct: host or cells: E. coli host derived from the BL21 strain, infected with T7 phage
Procedure, shortened: as §1

TNIK = target: T20, TNIK (Homo sapiens, UniProt Q9UKE5)
T20 construct: purchased Ambit Biosciences Corp (KinomeScan); host or cells: E. coli host derived from the BL21 strain (T7 phage lysate)
Procedure, shortened: as §1

MYO3B = target: T21, MYO3B (Homo sapiens, UniProt Q8WXR4)
T21 construct: host or cells: T7 phage in E. coli host derived from BL21
Procedure, shortened: as §1

ANKK1 = target: T22, ANKK1 (Homo sapiens, UniProt Q8NFD2)
T22 construct: host or cells: E. coli host derived from BL21 (T7 phage lysate)
Procedure, shortened: as §1

T5 sequence (Q9Y2H1 whole entry): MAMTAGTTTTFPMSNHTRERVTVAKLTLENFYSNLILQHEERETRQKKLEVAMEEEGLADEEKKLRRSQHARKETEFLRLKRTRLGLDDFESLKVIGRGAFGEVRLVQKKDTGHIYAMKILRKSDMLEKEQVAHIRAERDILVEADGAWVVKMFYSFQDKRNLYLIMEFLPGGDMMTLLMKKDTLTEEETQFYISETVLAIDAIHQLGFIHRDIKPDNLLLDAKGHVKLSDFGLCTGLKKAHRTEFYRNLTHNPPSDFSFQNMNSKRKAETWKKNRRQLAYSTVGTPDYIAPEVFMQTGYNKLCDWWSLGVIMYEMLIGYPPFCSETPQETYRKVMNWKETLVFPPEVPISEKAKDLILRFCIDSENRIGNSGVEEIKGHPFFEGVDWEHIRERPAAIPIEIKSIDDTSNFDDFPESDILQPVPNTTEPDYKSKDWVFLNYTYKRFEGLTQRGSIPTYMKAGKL
T7 sequence (Q9H093 whole entry): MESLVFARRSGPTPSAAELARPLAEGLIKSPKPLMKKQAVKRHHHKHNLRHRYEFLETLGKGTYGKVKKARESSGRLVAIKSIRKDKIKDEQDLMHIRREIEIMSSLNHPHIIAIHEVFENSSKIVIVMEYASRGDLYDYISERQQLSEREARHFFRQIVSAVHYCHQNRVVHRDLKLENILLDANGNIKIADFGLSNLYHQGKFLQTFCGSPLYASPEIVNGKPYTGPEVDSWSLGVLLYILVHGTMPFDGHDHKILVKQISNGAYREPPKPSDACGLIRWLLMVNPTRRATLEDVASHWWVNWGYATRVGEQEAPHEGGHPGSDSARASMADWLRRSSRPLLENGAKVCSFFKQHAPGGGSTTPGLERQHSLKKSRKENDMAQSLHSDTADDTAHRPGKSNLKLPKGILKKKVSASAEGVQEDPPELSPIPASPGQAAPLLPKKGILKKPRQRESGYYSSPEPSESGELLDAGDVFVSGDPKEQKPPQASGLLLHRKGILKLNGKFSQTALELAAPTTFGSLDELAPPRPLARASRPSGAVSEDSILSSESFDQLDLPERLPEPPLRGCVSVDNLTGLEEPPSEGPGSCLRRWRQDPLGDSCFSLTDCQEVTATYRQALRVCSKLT
T14 sequence (Q15139 whole entry): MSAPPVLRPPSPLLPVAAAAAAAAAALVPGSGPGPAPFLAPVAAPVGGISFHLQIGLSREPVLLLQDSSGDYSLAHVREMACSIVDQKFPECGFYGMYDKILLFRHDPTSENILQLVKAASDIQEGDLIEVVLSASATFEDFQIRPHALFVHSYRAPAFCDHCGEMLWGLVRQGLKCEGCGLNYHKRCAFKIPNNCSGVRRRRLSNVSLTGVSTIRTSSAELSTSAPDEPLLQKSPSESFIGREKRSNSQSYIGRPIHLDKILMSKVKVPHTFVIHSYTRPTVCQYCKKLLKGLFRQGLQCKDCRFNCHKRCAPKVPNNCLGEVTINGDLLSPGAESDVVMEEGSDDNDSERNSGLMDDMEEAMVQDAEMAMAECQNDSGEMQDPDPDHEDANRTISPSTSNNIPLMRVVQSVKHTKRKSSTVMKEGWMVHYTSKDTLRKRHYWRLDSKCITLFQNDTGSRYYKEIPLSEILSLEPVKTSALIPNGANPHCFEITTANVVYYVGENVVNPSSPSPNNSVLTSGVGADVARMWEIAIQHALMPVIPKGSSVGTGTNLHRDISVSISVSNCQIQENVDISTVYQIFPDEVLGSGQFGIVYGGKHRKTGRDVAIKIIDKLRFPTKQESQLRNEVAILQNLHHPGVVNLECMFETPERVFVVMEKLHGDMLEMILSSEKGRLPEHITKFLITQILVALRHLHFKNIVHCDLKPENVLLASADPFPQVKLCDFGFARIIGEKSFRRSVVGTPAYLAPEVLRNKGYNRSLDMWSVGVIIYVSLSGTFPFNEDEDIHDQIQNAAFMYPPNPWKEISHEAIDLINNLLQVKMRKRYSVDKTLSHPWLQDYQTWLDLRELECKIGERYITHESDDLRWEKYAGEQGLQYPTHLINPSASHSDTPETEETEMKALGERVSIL
T3 sequence (Q9UK32 426-683 limits assumed): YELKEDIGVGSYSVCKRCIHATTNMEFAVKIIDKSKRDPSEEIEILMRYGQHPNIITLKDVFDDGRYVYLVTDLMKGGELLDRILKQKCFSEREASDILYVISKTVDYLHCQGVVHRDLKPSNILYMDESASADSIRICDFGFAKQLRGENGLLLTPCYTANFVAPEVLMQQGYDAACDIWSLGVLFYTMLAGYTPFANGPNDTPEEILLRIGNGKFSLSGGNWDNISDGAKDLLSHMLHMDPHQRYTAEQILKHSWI
T20 sequence (Q9UKE5 whole entry): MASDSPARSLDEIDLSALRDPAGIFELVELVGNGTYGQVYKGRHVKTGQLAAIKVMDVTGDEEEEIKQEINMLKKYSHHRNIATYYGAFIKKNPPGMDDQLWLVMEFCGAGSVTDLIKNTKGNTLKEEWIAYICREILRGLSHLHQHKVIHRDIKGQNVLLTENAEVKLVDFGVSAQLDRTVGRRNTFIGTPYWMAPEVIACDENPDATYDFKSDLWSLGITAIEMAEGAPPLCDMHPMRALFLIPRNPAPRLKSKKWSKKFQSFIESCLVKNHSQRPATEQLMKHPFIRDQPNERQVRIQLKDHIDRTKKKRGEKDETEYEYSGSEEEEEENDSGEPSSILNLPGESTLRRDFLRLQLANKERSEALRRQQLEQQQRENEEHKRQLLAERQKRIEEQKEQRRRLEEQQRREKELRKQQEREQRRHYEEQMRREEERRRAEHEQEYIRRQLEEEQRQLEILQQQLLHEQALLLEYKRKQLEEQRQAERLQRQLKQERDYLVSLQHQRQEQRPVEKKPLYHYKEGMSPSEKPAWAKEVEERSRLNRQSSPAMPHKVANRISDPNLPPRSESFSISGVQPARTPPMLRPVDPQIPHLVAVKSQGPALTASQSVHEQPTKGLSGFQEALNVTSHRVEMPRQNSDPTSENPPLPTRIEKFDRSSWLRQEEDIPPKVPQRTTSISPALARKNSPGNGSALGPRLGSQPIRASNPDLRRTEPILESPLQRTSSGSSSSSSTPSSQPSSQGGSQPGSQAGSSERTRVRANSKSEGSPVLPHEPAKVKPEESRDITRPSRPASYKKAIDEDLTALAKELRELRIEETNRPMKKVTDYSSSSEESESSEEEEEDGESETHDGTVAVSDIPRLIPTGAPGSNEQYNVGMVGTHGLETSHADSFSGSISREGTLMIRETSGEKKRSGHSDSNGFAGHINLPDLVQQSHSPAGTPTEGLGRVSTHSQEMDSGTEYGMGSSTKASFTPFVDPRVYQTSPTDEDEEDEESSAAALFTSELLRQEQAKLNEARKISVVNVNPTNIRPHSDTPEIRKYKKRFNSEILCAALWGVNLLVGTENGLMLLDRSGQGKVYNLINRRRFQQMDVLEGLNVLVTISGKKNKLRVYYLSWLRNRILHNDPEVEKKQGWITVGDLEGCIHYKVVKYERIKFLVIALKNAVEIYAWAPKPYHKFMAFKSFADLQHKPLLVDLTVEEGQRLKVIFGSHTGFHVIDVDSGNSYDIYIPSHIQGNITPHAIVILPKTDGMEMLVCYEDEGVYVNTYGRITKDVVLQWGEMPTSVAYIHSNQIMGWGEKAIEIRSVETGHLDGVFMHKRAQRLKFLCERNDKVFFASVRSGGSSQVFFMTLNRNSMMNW
T10 sequence (O94921 whole entry): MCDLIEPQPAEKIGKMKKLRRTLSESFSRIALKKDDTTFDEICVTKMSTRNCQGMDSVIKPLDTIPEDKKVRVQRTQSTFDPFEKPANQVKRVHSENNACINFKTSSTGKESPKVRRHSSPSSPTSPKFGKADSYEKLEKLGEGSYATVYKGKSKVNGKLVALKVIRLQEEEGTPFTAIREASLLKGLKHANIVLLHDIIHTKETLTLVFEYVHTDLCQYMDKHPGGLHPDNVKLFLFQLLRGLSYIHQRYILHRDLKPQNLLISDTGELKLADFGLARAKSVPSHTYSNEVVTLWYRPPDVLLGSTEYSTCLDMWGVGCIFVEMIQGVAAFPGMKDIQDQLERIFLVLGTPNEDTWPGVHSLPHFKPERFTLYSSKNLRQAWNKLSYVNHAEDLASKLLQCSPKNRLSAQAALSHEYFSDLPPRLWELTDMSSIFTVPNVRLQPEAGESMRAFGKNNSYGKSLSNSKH
T22 sequence (Q8NFD2 whole entry): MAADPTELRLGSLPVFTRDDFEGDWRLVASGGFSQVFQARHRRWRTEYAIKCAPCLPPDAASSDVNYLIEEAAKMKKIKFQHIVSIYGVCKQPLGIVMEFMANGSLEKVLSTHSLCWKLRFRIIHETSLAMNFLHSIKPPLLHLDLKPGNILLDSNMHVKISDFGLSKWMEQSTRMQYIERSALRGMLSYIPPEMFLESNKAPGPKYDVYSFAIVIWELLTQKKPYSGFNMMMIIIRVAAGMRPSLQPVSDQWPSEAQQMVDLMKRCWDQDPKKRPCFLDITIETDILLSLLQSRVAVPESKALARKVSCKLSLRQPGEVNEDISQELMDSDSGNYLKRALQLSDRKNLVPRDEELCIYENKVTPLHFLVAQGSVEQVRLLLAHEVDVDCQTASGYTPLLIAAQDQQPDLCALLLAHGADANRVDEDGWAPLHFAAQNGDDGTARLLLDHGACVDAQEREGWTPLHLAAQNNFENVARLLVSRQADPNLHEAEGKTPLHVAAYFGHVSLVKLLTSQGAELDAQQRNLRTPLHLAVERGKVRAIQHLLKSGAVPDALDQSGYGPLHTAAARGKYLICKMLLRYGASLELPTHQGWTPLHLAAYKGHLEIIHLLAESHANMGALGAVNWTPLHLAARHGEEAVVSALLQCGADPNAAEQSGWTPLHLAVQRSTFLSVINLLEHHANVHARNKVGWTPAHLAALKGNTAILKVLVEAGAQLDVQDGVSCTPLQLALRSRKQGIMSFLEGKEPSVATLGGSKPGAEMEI

SMILES: C#Cc1cccc(Nc2ncnc3cc(OC)c(OCCCN4CCOCC4)cc23)c1 [NRC-2694, N-(3-ethylnylphenyl)-7-methoxy-6-[3-(4-morpholinyl)propoxy]-4-quinazolinamine]
- % Ctrl @ 10000 nM (HCK): 17 % Ctrl
- % Ctrl @ 10000 nM (TIE1): 52 % Ctrl
- % Ctrl @ 10000 nM [1]: 55 % Ctrl
- % Ctrl @ 10000 nM (CDK3): 91 % Ctrl
- % Ctrl @ 10000 nM (NDR2): 74 % Ctrl
- % Ctrl @ 10000 nM (KIT (V559D)): 17 % Ctrl
- % Ctrl @ 10000 nM (SNARK): 19 % Ctrl
- % Ctrl @ 10000 nM (ERK8): 62 % Ctrl
- % Ctrl @ 10000 nM (MST3): 42 % Ctrl
- % Ctrl @ 10000 nM (PFTK1): 71 % Ctrl
- % Ctrl @ 10000 nM (ABL1 (M351T)): 37 % Ctrl
- % Ctrl @ 10000 nM (ABL1): 67 % Ctrl
- % Ctrl @ 10000 nM (ABL1 (F317L)): 33 % Ctrl
- % Ctrl @ 10000 nM (PRKD1): 9.6 % Ctrl
- % Ctrl @ 10000 nM (TGFBR2): 86 % Ctrl
- % Ctrl @ 10000 nM (INSRR): 79 % Ctrl
- % Ctrl @ 10000 nM (IGF1R): 74 % Ctrl
- % Ctrl @ 10000 nM (BRSK1): 53 % Ctrl
- % Ctrl @ 10000 nM (PDGFRA): 50 % Ctrl
- % Ctrl @ 10000 nM (TNIK): 17 % Ctrl
- % Ctrl @ 10000 nM (MYO3B): 100 % Ctrl
- % Ctrl @ 10000 nM (ANKK1): 73 % Ctrl
